The NIST ThermoML archive (doi:10.1016/j.fluid.2008.03.015)
Where “and” joins values, the source holds several entries; their conditions need not be identical. Identical values can stand only once. Numbers after ± are expanded uncertainties.

Details: Liquid, Closed cell (Static) method

For `ClCCCl` [1,2-dichloroethane], the “vapor or sublimation pressure” value (284.86 K) was 5.38 ± 0.06 kPa, the “vapor or sublimation pressure” value (284.87 K) was 5.37 ± 0.06 kPa and the “vapor or sublimation pressure” value (294.83 K) was 8.96 ± 0.09 kPa. The “vapor or sublimation pressure” value (294.84 K) was 8.95 ± 0.09 kPa, the “vapor or sublimation pressure” value (304.82 K) was 14.33 ± 0.15 kPa and 14.32 ± 0.15 kPa and the “vapor or sublimation pressure” value (314.81 K) was 22.18 ± 0.23 kPa. For the same compound, the “vapor or sublimation pressure” value (314.83 K) was 22.18 ± 0.23 kPa, the “vapor or sublimation pressure” value (324.82 K) was 33.28 ± 0.34 kPa and the “vapor or sublimation pressure” value (324.83 K) was 33.27 ± 0.34 kPa. The “vapor or sublimation pressure” value (334.79 K) was 48.45 ± 0.49 kPa, the “vapor or sublimation pressure” value (334.82 K) was 48.46 ± 0.49 kPa and the “vapor or sublimation pressure” value (344.81 K) was 67.97 ± 0.69 kPa. For the same compound, the “vapor or sublimation pressure” value (344.82 K) was 67.98 ± 0.69 kPa and the “vapor or sublimation pressure” value (354.89 K) was 94.95 ± 0.97 kPa and 94.94 ± 0.97 kPa.
In the case of `COC(C)(C)C` [2-methoxy-2-methylpropane], the “vapor or sublimation pressure” value (274.9 K) is reported as 11.59 ± 0.12 kPa, the “vapor or sublimation pressure” value (274.91 K) is reported as 11.59 ± 0.12 kPa and the “vapor or sublimation pressure” value (284.82 K) is reported as 18.55 ± 0.19 kPa. The “vapor or sublimation pressure” value (294.8 K) was 28.78 ± 0.29 kPa, the “vapor or sublimation pressure” value (294.81 K) was 28.78 ± 0.29 kPa and the “vapor or sublimation pressure” value (304.79 K) was 43.24 ± 0.44 kPa and 43.26 ± 0.44 kPa. The “vapor or sublimation pressure” value (314.75 K) was 62.95 ± 0.64 kPa, the “vapor or sublimation pressure” value (314.76 K) was 62.97 ± 0.64 kPa and the “vapor or sublimation pressure” value (324.9 K) was 89.66 ± 0.91 kPa and 89.69 ± 0.91 kPa. For the same compound, the “vapor or sublimation pressure” value (334.85 K) was 124.02 ± 1.3 kPa, the “vapor or sublimation pressure” value (344.84 K) was 167.14 ± 1.7 kPa and the “vapor or sublimation pressure” value (344.85 K) was 167.57 ± 1.7 kPa. For the same compound, the “vapor or sublimation pressure” value (354.82 K) was 221.79 ± 2.2 kPa and 221.39 ± 2.2 kPa.
For `CC(C)OC(C)C` [diisopropyl ether], the “vapor or sublimation pressure” value (284.93 K) was 10.74 ± 0.11 kPa and 10.75 ± 0.11 kPa, the “vapor or sublimation pressure” value (294.9 K) was 17.21 ± 0.18 kPa and the “vapor or sublimation pressure” value (294.91 K) was 17.21 ± 0.18 kPa. The “vapor or sublimation pressure” value (304.87 K) was 26.57 ± 0.27 kPa, the “vapor or sublimation pressure” value (304.89 K) was 26.58 ± 0.27 kPa and the “vapor or sublimation pressure” value (314.86 K) was 39.71 ± 0.41 kPa. The “vapor or sublimation pressure” value (314.87 K) was 39.72 ± 0.41 kPa, the “vapor or sublimation pressure” value (324.85 K) was 57.64 ± 0.59 kPa and the “vapor or sublimation pressure” value (324.87 K) was 57.65 ± 0.59 kPa. For the same compound, the “vapor or sublimation pressure” value (334.85 K) was 81.41 ± 0.83 kPa and 81.42 ± 0.83 kPa, the “vapor or sublimation pressure” value (344.84 K) was 112.36 ± 1.1 kPa and the “vapor or sublimation pressure” value (344.85 K) was 112.39 ± 1.1 kPa. The “vapor or sublimation pressure” value (354.87 K) was 151.81 ± 1.5 kPa and the “vapor or sublimation pressure” value (354.88 K) was 151.82 ± 1.5 kPa.
With `CCOCC` [diethyl ether] the “vapor or sublimation pressure” value (255.47 K) was 10.11 ± 0.1 kPa, the “vapor or sublimation pressure” value (255.48 K) was 10.13 ± 0.1 kPa and the “vapor or sublimation pressure” value (255.5 K) was 10.14 ± 0.1 kPa. For the same compound, the “vapor or sublimation pressure” value (265.44 K) was 17.06 ± 0.17 kPa, the “vapor or sublimation pressure” value (265.45 K) was 17.07 ± 0.17 kPa and the “vapor or sublimation pressure” value (274.86 K) was 26.9 ± 0.27 kPa. For the same compound, the “vapor or sublimation pressure” value (274.87 K) was 26.91 ± 0.27 kPa, the “vapor or sublimation pressure” value (284.83 K) was 41.98 ± 0.43 kPa and the “vapor or sublimation pressure” value (284.84 K) was 42 ± 0.43 kPa. For the same compound, the “vapor or sublimation pressure” value (294.77 K) was 62.89 ± 0.64 kPa, the “vapor or sublimation pressure” value (294.78 K) was 62.93 ± 0.64 kPa and the “vapor or sublimation pressure” value (304.75 K) was 91.58 ± 0.93 kPa and 91.56 ± 0.93 kPa. The “vapor or sublimation pressure” value (304.76 K) was 91.6 ± 0.93 kPa, the “vapor or sublimation pressure” value (314.74 K) was 129.3 ± 1.3 kPa and 129.45 ± 1.3 kPa and the “vapor or sublimation pressure” value (314.75 K) was 129.42 ± 1.3 kPa. For the same compound, the “vapor or sublimation pressure” value (324.89 K) was 179.51 ± 1.8 kPa and 179.65 ± 1.8 kPa and 179.77 ± 1.8 kPa.
